Laboratory results as given in PubChem BioAssay (NCI).
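Abbreviation: GI50, concentration required for 50% inhibition of growth. The concentration for full growth arrest is given as TGI.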

Columns and labels:
Assay in all cases: growth of human tumour cells (NCI), 384-well format
SN12C renal = test system: SN12C renal
RXF 393 renal = test system: RXF 393 renal
HCT-15 colon = test system: HCT-15 colon
HCT-116 colon = test system: HCT-116 colon
COLO 205 colon = test system: COLO 205 colon
MDA-MB-435 melanoma = test system: MDA-MB-435 melanoma
SR leukemia = test system: SR leukemia
KM12 colon = test system: KM12 colon
MOLT-4 leukemia = test system: MOLT-4 leukemia
SNB-75 CNS = test system: SNB-75 CNS
NCI-H322M lung = test system: NCI-H322M lung
SF-539 CNS = test system: SF-539 CNS
NCI-H460 NSCLC = test system: NCI-H460 NSCLC
TK-10 renal = test system: TK-10 renal
NCI-H226 lung = test system: NCI-H226 lung
SK-MEL-5 melanoma = test system: SK-MEL-5 melanoma
HOP-92 NSCLC = test system: HOP-92 NSCLC
EKVX NSCLC = test system: EKVX NSCLC
MDA-MB-231 breast = test system: MDA-MB-231 breast
A498 renal = test system: A498 renal
A549 NSCLC = test system: A549 NSCLC
LOX IMVI melanoma = test system: LOX IMVI melanoma
RPMI-8226 leukemia = test system: RPMI-8226 leukemia
HT29 colon = test system: HT29 colon
CAKI-1 renal = test system: CAKI-1 renal
MDA-MB-468 breast = test system: MDA-MB-468 breast
HS 578T breast = test system: HS 578T breast
BT-549 breast = test system: BT-549 breast
SNB-19 CNS = test system: SNB-19 CNS
IGROV1 ovarian = test system: IGROV1 ovarian
T-47D breast = test system: T-47D breast
HOP-62 NSCLC = test system: HOP-62 NSCLC
HCC-2998 colon = test system: HCC-2998 colon
MCF7 breast = test system: MCF7 breast
SK-OV-3 ovarian = test system: SK-OV-3 ovarian
OVCAR-3 ovarian = test system: OVCAR-3 ovarian
SF-268 CNS = test system: SF-268 CNS
UACC-257 melanoma = test system: UACC-257 melanoma
NCI-H522 lung = test system: NCI-H522 lung
PC-3 prostate = test system: PC-3 prostate
HL-60(TB) leukemia = test system: HL-60(TB) leukemia
OVCAR-4 ovarian = test system: OVCAR-4 ovarian
SK-MEL-28 melanoma = test system: SK-MEL-28 melanoma
DU-145 prostate = test system: DU-145 prostate
M14 melanoma = test system: M14 melanoma
UACC-62 melanoma = test system: UACC-62 melanoma
ACHN renal = test system: ACHN renal
NCI/ADR-RES ovarian = test system: NCI/ADR-RES ovarian
U251 glioblastoma = test system: U251 glioblastoma
NCI-H23 lung = test system: NCI-H23 lung
786-0 renal = test system: 786-0 renal
K-562 leukemia = test system: K-562 leukemia
SK-MEL-2 melanoma = test system: SK-MEL-2 melanoma
UO-31 renal = test system: UO-31 renal
SF-295 CNS = test system: SF-295 CNS
OVCAR-5 ovarian = test system: OVCAR-5 ovarian
MALME-3M melanoma = test system: MALME-3M melanoma
OVCAR-8 ovarian = test system: OVCAR-8 ovarian
SW-620 colon = test system: SW-620 colon

N#CCCNc1nonc1-c1nc2ccccc2n1CC(=O)c1ccc(N)cc1
GI50 (SN12C renal): 12.2 nM
TGI (SN12C renal): 88.2 nM
GI50 (RXF 393 renal): < 10 nM
TGI (RXF 393 renal): 10300 nM
GI50 (HCT-15 colon): 16.7 nM
TGI (HCT-15 colon): 48.6 nM
GI50 (HCT-116 colon): < 10 nM
TGI (HCT-116 colon): > 100000 nM
GI50 (COLO 205 colon): 20.7 nM
TGI (COLO 205 colon): 56.6 nM
GI50 (MDA-MB-435 melanoma): < 10 nM
TGI (MDA-MB-435 melanoma): < 10 nM
GI50 (SR leukemia): < 10 nM
TGI (SR leukemia): < 10 nM
GI50 (KM12 colon): < 10 nM
TGI (KM12 colon): > 100000 nM
GI50 (MOLT-4 leukemia): 19.2 nM
TGI (MOLT-4 leukemia): 33.7 nM
GI50 (SNB-75 CNS): 12 nM
TGI (SNB-75 CNS): > 100000 nM
GI50 (NCI-H322M lung): 53.1 nM
TGI (NCI-H322M lung): > 100000 nM
GI50 (SF-539 CNS): < 10 nM
TGI (SF-539 CNS): 25.7 nM
GI50 (NCI-H460 NSCLC): < 10 nM
TGI (NCI-H460 NSCLC): 20 nM
GI50 (TK-10 renal): < 10 nM
TGI (TK-10 renal): > 100000 nM
GI50 (NCI-H226 lung): < 10 nM
TGI (NCI-H226 lung): 22.8 nM
GI50 (SK-MEL-5 melanoma): < 10 nM
TGI (SK-MEL-5 melanoma): 17 nM
GI50 (HOP-92 NSCLC): 30.5 nM
TGI (HOP-92 NSCLC): > 100000 nM
GI50 (EKVX NSCLC): < 10 nM
TGI (EKVX NSCLC): > 100000 nM
GI50 (MDA-MB-231 breast): 59 nM
TGI (MDA-MB-231 breast): > 100000 nM
GI50 (A498 renal): < 10 nM
TGI (A498 renal): 36.5 nM
GI50 (A549 NSCLC): 22.7 nM
TGI (A549 NSCLC): > 100000 nM
GI50 (LOX IMVI melanoma): 19 nM
TGI (LOX IMVI melanoma): 44.2 nM
GI50 (RPMI-8226 leukemia): < 10 nM
TGI (RPMI-8226 leukemia): 22.2 nM
GI50 (HT29 colon): 21 nM
TGI (HT29 colon): > 100000 nM
GI50 (CAKI-1 renal): < 10 nM
TGI (CAKI-1 renal): > 100000 nM
GI50 (MDA-MB-468 breast): < 10 nM
TGI (MDA-MB-468 breast): < 10 nM
GI50 (HS 578T breast): < 10 nM
TGI (HS 578T breast): 11.4 nM
GI50 (BT-549 breast): < 10 nM
TGI (BT-549 breast): 35 nM
GI50 (SNB-19 CNS): < 10 nM
TGI (SNB-19 CNS): 92 nM
GI50 (IGROV1 ovarian): 19.5 nM
TGI (IGROV1 ovarian): 39300 nM
GI50 (T-47D breast): 1870 nM
TGI (T-47D breast): > 100000 nM
GI50 (HOP-62 NSCLC): < 10 nM
TGI (HOP-62 NSCLC): 503 nM
GI50 (HCC-2998 colon): 15 nM
TGI (HCC-2998 colon): 47.5 nM
GI50 (MCF7 breast): < 10 nM
TGI (MCF7 breast): > 100000 nM
GI50 (SK-OV-3 ovarian): < 10 nM
TGI (SK-OV-3 ovarian): > 100000 nM
GI50 (OVCAR-3 ovarian): < 10 nM
TGI (OVCAR-3 ovarian): 14 nM
GI50 (SF-268 CNS): < 10 nM
TGI (SF-268 CNS): 51100 nM
GI50 (UACC-257 melanoma): < 10 nM
TGI (UACC-257 melanoma): > 100000 nM
GI50 (NCI-H522 lung): < 10 nM
TGI (NCI-H522 lung): < 10 nM
GI50 (PC-3 prostate): 15.9 nM
TGI (PC-3 prostate): > 100000 nM
GI50 (HL-60(TB) leukemia): < 10 nM
TGI (HL-60(TB) leukemia): 16 nM
GI50 (OVCAR-4 ovarian): < 10 nM
TGI (OVCAR-4 ovarian): 2330 nM
GI50 (SK-MEL-28 melanoma): 101 nM
TGI (SK-MEL-28 melanoma): > 100000 nM
GI50 (DU-145 prostate): 20.8 nM
TGI (DU-145 prostate): 47.4 nM
GI50 (M14 melanoma): < 10 nM
TGI (M14 melanoma): 21 nM
GI50 (UACC-62 melanoma): < 10 nM
TGI (UACC-62 melanoma): > 100000 nM
GI50 (ACHN renal): < 10 nM
TGI (ACHN renal): 37300 nM
GI50 (NCI/ADR-RES ovarian): < 10 nM
TGI (NCI/ADR-RES ovarian): < 10 nM
GI50 (U251 glioblastoma): < 10 nM
TGI (U251 glioblastoma): 40.7 nM

COc1cccc2c1nc(C(F)F)n2-c1nc(-c2ccc(NS(=O)(=O)CCN(C)C)cc2)nc(N2CCOCC2)n1
GI50 (SN12C renal): 229 nM
TGI (SN12C renal): 12400 nM
GI50 (NCI-H23 lung): 148 nM
TGI (NCI-H23 lung): 1040 nM
GI50 (RXF 393 renal): 22.4 nM
TGI (RXF 393 renal): 364 nM
GI50 (HCT-15 colon): 300 nM
TGI (HCT-15 colon): 1450 nM
GI50 (HCT-116 colon): 320 nM
TGI (HCT-116 colon): 1510 nM
GI50 (COLO 205 colon): 219 nM
TGI (COLO 205 colon): 1100 nM
GI50 (MDA-MB-435 melanoma): 255 nM
TGI (MDA-MB-435 melanoma): 1390 nM
GI50 (SR leukemia): 153 nM
TGI (SR leukemia): 408 nM
GI50 (KM12 colon): 110 nM
TGI (KM12 colon): 1220 nM
GI50 (MOLT-4 leukemia): 46.8 nM
TGI (MOLT-4 leukemia): 176 nM
GI50 ([…]-0 renal): 491 nM
TGI (786-0 renal): 1690 nM
GI50 (SNB-75 CNS): 29.6 nM
TGI (SNB-75 CNS): 361 nM
GI50 (NCI-H322M lung): 151 nM
TGI (NCI-H322M lung): 1090 nM
GI50 (SF-539 CNS): 179 nM
TGI (SF-539 CNS): 1230 nM
GI50 (NCI-H460 NSCLC): 302 nM
TGI (NCI-H460 NSCLC): 1550 nM
GI50 (K-562 leukemia): 634 nM
TGI (K-562 leukemia): 1950 nM
GI50 (TK-10 renal): 127 nM
TGI (TK-10 renal): 1220 nM
GI50 (NCI-H226 lung): 195 nM
TGI (NCI-H226 lung): 873 nM
GI50 (SK-MEL-2 melanoma): 282 nM
TGI (SK-MEL-2 melanoma): 1540 nM
GI50 (SK-MEL-5 melanoma): 93.8 nM
TGI (SK-MEL-5 melanoma): 371 nM
GI50 (HOP-92 NSCLC): 167 nM
TGI (HOP-92 NSCLC): 998 nM
GI50 (EKVX NSCLC): 53.9 nM
TGI (EKVX NSCLC): 426 nM
GI50 (MDA-MB-231 breast): 319 nM
TGI (MDA-MB-231 breast): 1800 nM
GI50 (A498 renal): 171 nM
TGI (A498 renal): 961 nM
GI50 (A549 NSCLC): 297 nM
TGI (A549 NSCLC): 1260 nM
GI50 (UO-31 renal): 125 nM
TGI (UO-31 renal): 384 nM
GI50 (HT29 colon): 238 nM
TGI (HT29 colon): 1470 nM
GI50 (SF-295 CNS): 161 nM
TGI (SF-295 CNS): 1100 nM
GI50 (CAKI-1 renal): 200 nM
TGI (CAKI-1 renal): 1420 nM
GI50 (OVCAR-5 ovarian): 266 nM
TGI (OVCAR-5 ovarian): 5440 nM
GI50 (MDA-MB-468 breast): 76.2 nM
TGI (MDA-MB-468 breast): 431 nM
GI50 (HS 578T breast): 92.1 nM
TGI (HS 578T breast): 377 nM
GI50 (BT-549 breast): 250 nM
TGI (BT-549 breast): 1400 nM
GI50 (SNB-19 CNS): 3800 nM
TGI (SNB-19 CNS): 22100 nM
GI50 (MALME-3M melanoma): 127 nM
TGI (MALME-3M melanoma): 874 nM
GI50 (IGROV1 ovarian): 24.9 nM
TGI (IGROV1 ovarian): 96.3 nM
GI50 (T-47D breast): 24 nM
TGI (T-47D breast): 120 nM
GI50 (HOP-62 NSCLC): 285 nM
TGI (HOP-62 NSCLC): 1420 nM
GI50 (MCF7 breast): 21.3 nM
TGI (MCF7 breast): 299 nM
GI50 (OVCAR-8 ovarian): 323 nM
TGI (OVCAR-8 ovarian): 1590 nM
GI50 (SK-OV-3 ovarian): 83.5 nM
TGI (SK-OV-3 ovarian): 362 nM
GI50 (OVCAR-3 ovarian): 138 nM
TGI (OVCAR-3 ovarian): 1110 nM
GI50 (SF-268 CNS): 374 nM
TGI (SF-268 CNS): 1780 nM
GI50 (UACC-257 melanoma): 292 nM
TGI (UACC-257 melanoma): 1360 nM
GI50 (NCI-H522 lung): 98.7 nM
TGI (NCI-H522 lung): 689 nM
GI50 (PC-3 prostate): 122 nM
TGI (PC-3 prostate): 1200 nM
GI50 (SW-620 colon): 418 nM
TGI (SW-620 colon): 1780 nM
GI50 (HL-60(TB) leukemia): 116 nM
TGI (HL-60(TB) leukemia): 1100 nM
GI50 (OVCAR-4 ovarian): 144 nM
TGI (OVCAR-4 ovarian): 1550 nM
GI50 (SK-MEL-28 melanoma): 191 nM
TGI (SK-MEL-28 melanoma): 17100 nM
GI50 (DU-145 prostate): 263 nM
TGI (DU-145 prostate): 1390 nM
GI50 (M14 melanoma): 390 nM
TGI (M14 melanoma): 1710 nM
GI50 (UACC-62 melanoma): 206 nM
TGI (UACC-62 melanoma): 1250 nM
GI50 (ACHN renal): 144 nM
TGI (ACHN renal): 1050 nM
GI50 (U251 glioblastoma): 1020 nM
TGI (U251 glioblastoma): 2200 nM
